Reference: paper PMC4264242, “Androgen Receptor Antagonists and Anti-Prostate Cancer Activities of Some Newly Synthesized Substituted Fused Pyrazolo-, Triazolo- and Thiazolo-Pyrimidine Derivatives” (International Journal of Molecular Sciences, 2014)
“Also recorded” adds a separate entry of the source.

What was measured:
human androgen receptor = molecular target: T1, human androgen receptor (Homo sapiens, UniProt P10275); assay: In vitro androgen receptor antagonistic activity, DHT-induced MMTV-luciferase reporter assay in AR/CHO#3 cells; type: cell-based; details: 0.3 nM DHT
T1 construct: expressed in transfected cells
T1 sequence (P10275 1-920): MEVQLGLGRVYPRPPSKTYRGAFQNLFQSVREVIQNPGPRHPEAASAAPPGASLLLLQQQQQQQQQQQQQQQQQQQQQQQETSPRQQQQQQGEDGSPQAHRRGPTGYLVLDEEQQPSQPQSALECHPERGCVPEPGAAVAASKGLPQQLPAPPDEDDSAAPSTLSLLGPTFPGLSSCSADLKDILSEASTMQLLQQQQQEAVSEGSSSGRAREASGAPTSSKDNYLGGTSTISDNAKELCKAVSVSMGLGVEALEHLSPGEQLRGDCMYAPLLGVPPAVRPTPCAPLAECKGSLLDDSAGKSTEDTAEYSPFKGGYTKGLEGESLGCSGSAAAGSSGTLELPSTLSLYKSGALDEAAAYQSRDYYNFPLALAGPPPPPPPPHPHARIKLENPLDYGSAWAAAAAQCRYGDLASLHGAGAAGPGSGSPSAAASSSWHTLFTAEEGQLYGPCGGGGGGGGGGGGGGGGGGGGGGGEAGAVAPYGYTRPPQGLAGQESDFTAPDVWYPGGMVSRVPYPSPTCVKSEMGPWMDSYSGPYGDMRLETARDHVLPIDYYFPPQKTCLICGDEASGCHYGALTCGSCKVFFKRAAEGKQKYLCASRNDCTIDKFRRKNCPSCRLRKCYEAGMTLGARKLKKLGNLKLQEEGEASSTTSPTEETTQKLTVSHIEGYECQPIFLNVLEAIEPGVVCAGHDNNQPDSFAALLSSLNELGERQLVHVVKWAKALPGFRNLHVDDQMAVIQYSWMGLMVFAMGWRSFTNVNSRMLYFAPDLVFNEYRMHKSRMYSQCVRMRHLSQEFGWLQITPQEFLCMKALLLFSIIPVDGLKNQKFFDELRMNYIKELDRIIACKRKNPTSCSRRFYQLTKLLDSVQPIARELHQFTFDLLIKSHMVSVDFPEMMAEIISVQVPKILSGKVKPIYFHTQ
Protocol: Chinese Hamster Ovary (CHO) Cells Stably Transfected with Human Androgen Receptor Gene and Mouse Mammary Tumor Virus (MMTV)-Luciferase Reporter Gene or SV40-Luciferase Gene: CHO cells were maintained in alpha-modified Eagle’s medium supplemented with 10% fetal bovine serum (FBS). The culture medium of neomycin-resistant clone cells was supplemented with 10% dextran-coated charcoal-stripped FBS (DCC-FBS) and […] of neomycin. The CHO cells were transfected at 40%–70% confluence in 10-cm petri dishes with a total of […] DNA (plasmide mammalian neow luciferase, (pMAMneoLUC)); Mouse mammary tumor virus (MMTV)-luciferase reporter plasmid and pSG5-hAR; human androgen receptor expression plasmid, or Simian vacuolating virus 40 (SV40-LUC); SV40-luciferase reporter plasmid containing neomycin resistant gene) by calcium phosphate mediated transfection. The stable transfected cells were selected in the culture medium supplemented with neomycin. The selected clone was designated as AR/CHO#3 (human AR gene and MMTV luciferase reporter gene integrated CHO cell) or SV/CHO#10 (SV-40-luciferase reporter gene integrated CHO cell), respectively.
The stable transfected AR/CHO#3 or SV/CHO#10 cells were plated onto 96-well luminoplates (Packard, Palo Alto, CA, USA) at a density of 2 × 10^4 cells/well, respectively.
Four to eight hours later, the medium was changed to a medium containing DMSO, 0.3 nM of DHT, or 0.3 nM of DHT, and the tested compound. At the end of incubation, the medium was removed and the cells were lysed with […] of lysis buffer (25 mM Tris–HCl (pH 7.8), 2 mM dithiothreitol, 2 mM 1,2-cyclo-hexanediamine-tetraacetic acid, 10% glycerol and 1% Triton X-100). Luciferase substrate (20 mM Tris–HCl (pH 7.8), 1.07 mM magnesium carbonate basic (MgCO3)4Mg(OH)2·5H2O, 2.67 mM MgSO4·7H2O, 0.1 mM ethylenediaminetetraacetic acid (EDTA), 33.3 mM dithiothreitol, 0.27 mM CoA, 0.47 mM luciferin, 0.53 mM ATP) was added, and luciferase activity was measured with a ML3000 luminometer (Dynatech Laboratories, El Paso, TX, UAS). AR antagonistic activities were calculated by the formula below: AR antagonistic activity (%) = 100 (I − X) / (I − B) (1) I: (luciferase activity of AR/CHO#3)/(luciferase activity of SV/CHO#10) in the presence of 0.3 nM of DHT, B: (luciferase activity of AR/CHO#3)/(luciferase activity of SV/CHO#10) in the presence of DMSO, X: (luciferase activity of AR/CHO#3)/(luciferase activity of SV/CHO#10) in the presence of 0.3 nM of DHT and the tested compound.
The concentration of compounds showing 50% AR antagonistic activity, or IC50 values, was obtained by nonlinear analysis using a statistical analysis system (SAS).

[1] = molecular target: T2, wild type AR in PC-3 cells (Homo sapiens, UniProt P10275); assay: Anti-prostate cancer screening, anti-androgenic bioassay (wild type AR transactivation) in PC-3 cells; type: cell-based; details: PC-3 cells transfected with wild type AR, 1 nM DHT, 24 h
T2 construct: expressed in transfected cells; host or cells: PC-3 cells (lack endogenous functional AR), transient transfection with SuperFect
T2 sequence (P10275 1-920): T1 sequence (P10275 1-920)
Protocol: Human prostate cancer LNCaP and PC-3 cells were maintained in RPMI medium and Dulbecco’s minimum essential medium (DMEM), respectively. Both media were supplemented with penicillin (25 units/mL), streptomycin ([…]), and 10% fetal calf serum. For the androgen receptor transactivation assay, an androgen-dependent reporter gene transcription test was employed as the primary screening for potential anti-androgen identification. This assay was first performed in LNCaP cells, which express a clinically relevant mutant AR. […] Wild type AR transactivation assay was performed in PC-3 host cells, which lack an endogenous, functional AR. The method and conditions of cell and gene transfection have been described previously. In brief, cells were plated in 24-well tissue culture dishes for 24 (PC-3 cells) or 48 (LNCaP cells) h prior to transfection. Subsequently, LNCaP cells were transfected with a reporter gene, MMTV-luciferase, which contains a MMTV-long terminal repeat (LTR) promoter and an androgen receptor binding element, and Renilla Luciferase Control Reporter Vectors 40 (PRL-SV40), which served as an internal control for transfection efficiency. PC-3 cells were transfected with a wild type AR expression plasmid, plasmide gene-5 androgen recptor (pSG5AR), in addition to the above-mentioned MMTV-luciferase reporter gene and PRL-SV40 internal control. SuperFect (Qiagen, Chatsworth, CA, USA) was employed as the transfection reagent following the manufacturer’s recommendations. At the end of a 5-h transfection, the medium was changed to DMEM or RPMI supplemented with 10% charcoal dextran-stripped, i.e., androgen-depleted, serum. After 24 h, the cells were treated with 1 nM of DHT and/or test compounds at the designated concentrations.
After 24 h the cells were harvested for luciferase activity assay using the Dual Luciferase Assay System (Promega, Madison, WI, USA.). The derived data was expressed as relative luciferase activity normalized to the internal luciferase control.

[2] = AR/CHO#3 cells normalised to SV/CHO#10

Compound | IC50, in vitro androgen receptor antagonistic activity (human androgen receptor; [2]) | IC50, in vitro androgen receptor antagonistic activity (human androgen receptor; AR/CHO#3 cells normalised to SV/CHO#10, listed as compound 1) | IC50 PC-3, anti-prostate cancer activity [1] | IC50 (human androgen receptor; [2]) | IC50 [1]
NNc1nc2c(ccc3ccccc32)s1 [Compound 1, 1-(naphtho[1,2-d]thiazol-2-yl)hydrazine] | Inactive | devoid from any activities; also recorded: devoid of any activity | devoid from any activities; also recorded: Inactive |  | 
N#Cc1cnn(-c2nc3c(ccc4ccccc43)s2)c1N [Compound 2, 2-[3-Amino-4-cyanopyrazol-2-yl]naphthalino[1,2-d]thiazole] |  |  |  | 31 nM | 157 nM
Nc1ncnc2c1cnn2-c1nc2c(ccc3ccccc32)s1 [Compound 3] |  |  |  | 37 nM | 177 nM
Nc1n[nH]c2c1cnn2-c1nc2c(ccc3ccccc32)s1 [Compound 4] |  |  |  | 34 nM | 179 nM
Nc1nc(=S)[nH]c2c1cnn2-c1nc2c(ccc3ccccc32)s1 [Compound 5, 2-[6-Amino-3H-4-thiopyrimidino[4,5-c]pyrazol-2-yl]naphthalino[1,2-d]thiazole] |  |  |  | 41 nM | 190 nM
N=c1sc(=S)[nH]c2c1cnn2-c1nc2c(ccc3ccccc32)s1 [Compound 6, 2-[6-Imino-3H-4-thiothiazino[4,5-c]pyrazol-2-yl]naphthalino[1,2-d]thiazole] |  |  |  | 44 nM | 201 nM
CCO/C=N\c1c(C#N)cnn1-c1nc2c(ccc3ccccc32)s1 [Compound 8, 2-[3-Ethylimidoformat-4-cyanopyrazol-2-yl]naphthalino[1,2-d]thiazole] |  |  |  | 77 nM | 279 nM
N#Cc1cnn(-c2nc3c(ccc4ccccc43)s2)c1/N=C\NN [Compound 9, 2-[3-Imidoformic hydrazido-4-cyanopyrazol-2-yl]naphthalino[1,2-d]thiazole] |  |  |  | 75 nM | 269 nM
Cc1nc2c3cnn(-c4nc5c(ccc6ccccc65)s4)c3ncn2n1 [Compound 10, 2-[6-Methyl[1,2,4]triazolo[2,3-c]pyrimidino[6,5-c]pyrazol-2-yl]naphthalino[1,2-d]thiazole] |  |  |  | 23 nM | 109 nM
N=c1c2cnn(-c3nc4c(ccc5ccccc54)s3)c2ncn1NC(=O)c1ccccc1 [Compound 11] |  |  |  | 39 nM | 180 nM
CCOC1SCC(=O)N1c1c(C#N)cnn1-c1nc2c(ccc3ccccc32)s1 (stereo not shown) [Compound 12, 2-[3-(2-Ethoxy-4-oxo-5-dihydro-1,3-thiazol-3-yl)-4-cyanopyrazol-2-yl]-naphthalino[1,2-d]thiazole] |  |  |  | 91 nM | 289 nM
CCOC1SCC2NC(=O)c3cnn(-c4nc5c(ccc6ccccc65)s4)c3N21 (stereo not shown) [Compound 13, 2-[3-Ethoxy-5-dihydro-6H-7-oxo-[1,3]thiazolo[3,4-b]pyrimidino[4,5-c]pyrazol-2-yl]naphthalino[1,2-d]thiazole] |  |  |  | 29 nM | 146 nM
